Experiments:
Assay in all cases: MIC, antibacterial and synergistic activity
Type in all cases: cell-based
A. baumanii JMI 2659 = settings: Acinetobacter baumannii, JMI2659; A. baumanii JMI 2659, Ges-14 (Cpase); substance alone
Description: (§1) In the Tables 10-12, compounds of the present invention were tested in combination with various antibiotics against metallo β-lactamase producing bacteria.

E. cloacae JMI 36 = settings: Enterobacter cloacae, JMI36; E. cloacae JMI 36, P99; substance alone
Description: as §1

E. coli ATCC 25922 = settings: Escherichia coli, ATCC25922, E. coli ATCC 25922, enzyme Wt; substance alone
Description: as §1

E. coli JMI 10767 = settings: Escherichia coli, JMI10767; E. coli JMI 10767, Wt; substance alone
Description: as §1

E. coli JMI 2671 = settings: Escherichia coli, JMI2671, E. coli JMI 2671, VIM-19 (Cpase); substance alone
Description: as §1

E. coli JMI 2692 = settings: Escherichia coli, JMI2692; E. coli JMI 2692, NDM-1, TEM-1, CTX-M-15; substance alone
Description: as §1

K. pneumo JMI 2693 = settings: K. pneumo JMI 2693, NDM-1 (Cpase); substance alone
Description: as §1

K. pneumo JMI 2697 = settings: K. pneumo JMI 2697, IMP-4 (Cpase); substance alone
Description: as §1

K. pneumo JMI 2699 = settings: K. pneumo JMI 2699, VIM-1, CTX-M3; substance alone
Description: as §1

P. aerug JMI 149 = settings: P. aerug JMI 149, Bla+++D+; substance alone
Description: as §1

E. coli JMI 4103 = settings: Escherichia coli, JMI4103; E. coli JMI 4103, KPC-2, Tem-1, CMY-Type; substance alone
E. coli JMI 4080 = settings: Escherichia coli, JMI4080, E. coli JMI 4080, Tem-10; substance alone
E. coli JMI 2665 = settings: Escherichia coli, JMI2665, read-out: MIC alone
K. pneumo JMI 4109 = settings: K. pneumo JMI 4109, SHV-1, SHV-12; substance alone
K. pneumo JMI 2673 = settings: K. pneumo JMI 2673, CTX-M14 (ESBL); substance alone
K. pneumo JMI 2674 = settings: K. pneumo JMI 2674, CTX-M15 (ESBL); substance alone
K. pneumo JMI 4088 = settings: K. pneumo JMI 4088, KPC-3 (Cpase); substance alone
K. pneumo JMI 4106 = settings: K. pneumo JMI 4106, KPC-3, TEM-1, SHV-12, SHV-141; substance alone
K. pneumo JMI 2681 = settings: K. pneumo JMI 2681, Oxa-48 (Cpase); substance alone
P. aerug JMI 2686 = settings: P. aerug JMI 2686, KPC-2 (Cpase); substance alone
E. coli JMI 10768 = settings: Escherichia coli, JMI10768; E. coli JMI 10768, CTX-M15 (Weak ESBL); substance alone
E. coli JMI 10770 = settings: Escherichia coli, JMI10770; E. coli JMI 10770, CTX-M15 (Hyper ESBL); substance alone
E. coli JMI 11103 = settings: Escherichia coli, JMI11103, E. coli JMI 11103, CTX-M15 (Intermediate ESBL); substance alone

Work on O=C(NNC(=O)[C@H]1CC[C@H]2CN1C(=O)N2OS(=O)(=O)O)C1CC1 (stereo in doubt) [Ex. 47, (2R,5S)-N′-(cyclopropylcarbonyl)-7-oxo-6-(sulfooxy)-1,6-diazabicyclo[3.2.1]octane-2-carbohydrazide] yielded an MIC (A. baumanii JMI 2659) greater than 16 µg/mL, an MIC (E. cloacae JMI 36) greater than 16 µg/mL and an MIC (E. coli ATCC 25922) greater than 16 µg/mL. The MIC (E. coli JMI 10767) was 8 µg/mL, the MIC (E. coli JMI 2671) was 8 µg/mL and the MIC (E. coli JMI 2692) was 8 µg/mL. For the same compound, the MIC (K. pneumo JMI 2693) was greater than 16 µg/mL, the MIC (K. pneumo JMI 2697) was greater than 16 µg/mL and the MIC (K. pneumo JMI 2699) was 16 µg/mL. It also gave an MIC (P. aerug JMI 149) greater than 16 µg/mL, an MIC (E. coli JMI 4103) of 2 µg/mL and an MIC (E. coli JMI 4080) of 4 µg/mL. The MIC (E. coli JMI 2665) was 2 µg/mL, the MIC (K. pneumo JMI 4109) was 2 µg/mL and the MIC (K. pneumo JMI 2673) was greater than 16 µg/mL. For the same compound, the MIC (K. pneumo JMI 2674) was greater than 16 µg/mL, the MIC (K. pneumo JMI 4088) was greater than 16 µg/mL and the MIC (K. pneumo JMI 4106) was 16 µg/mL. It also gave an MIC (K. pneumo JMI 2681) greater than 16 µg/mL, an MIC (P. aerug JMI 2686) greater than 16 µg/mL and an MIC (E. coli JMI 10768) of 16 µg/mL. It also gave an MIC (E. coli JMI 10770) of 8 µg/mL and an MIC (E. coli JMI 11103) of 16 µg/mL.

O=C(NNC(=O)[C@H]1CC[C@H]2CN1C(=O)N2OS(=O)(=O)O)C1CNC1 (stereo in doubt) [Ex. 67, (2R,5S)-N′-(azetidin-3-ylcarbonyl)-7-oxo-6-(sulfooxy)-1,6-diazabicyclo[3.2.1]octane-2-carbohydrazide] was tested, and the MIC (A. baumanii JMI 2659) was greater than 16 µg/mL, the MIC (E. cloacae JMI 36) was greater than 16 µg/mL and the MIC (E. coli ATCC 25922) was greater than 16 µg/mL. For the same compound, the MIC (E. coli JMI 10767) was greater than 16 µg/mL, the MIC (E. coli JMI 2671) was greater than 16 µg/mL and the MIC (E. coli JMI 2692) was 8 µg/mL. It also gave an MIC (K. pneumo JMI 2693) greater than 16 µg/mL, an MIC (K. pneumo JMI 2697) of 16 µg/mL and an MIC (K. pneumo JMI 2699) greater than 16 µg/mL. For the same compound, the MIC (P. aerug JMI 149) was 16 µg/mL, the MIC (E. coli JMI 4103) was 16 µg/mL and the MIC (E. coli JMI 4080) was 16 µg/mL. The MIC (E. coli JMI 2665) was 8 µg/mL, the MIC (K. pneumo JMI 4109) was 4 µg/mL and the MIC (K. pneumo JMI 2673) was greater than 16 µg/mL. The MIC (K. pneumo JMI 2674) was greater than 16 µg/mL, the MIC (K. pneumo JMI 4088) was 16 µg/mL and the MIC (K. pneumo JMI 4106) was 8 µg/mL. The MIC (K. pneumo JMI 2681) was greater than 16 µg/mL, the MIC (P. aerug JMI 2686) was 16 µg/mL and the MIC (E. coli JMI 10768) was greater than 16 µg/mL. It also gave an MIC (E. coli JMI 10770) greater than 16 µg/mL and an MIC (E. coli JMI 11103) greater than 16 µg/mL.
